Test results reported in BindingDB's records for doi:10.7270/Q2G44NQ4 (Emory University, 2007).

What follows are molecules tested against Mothers against decapentaplegic homolog 3 (Homo sapiens, UniProt P84022) (assay: SMAD3 transcription factor inhibitors, dose response (AID 715)).
Mothers against decapentaplegic homolog 3, sequence (P84022 whole entry): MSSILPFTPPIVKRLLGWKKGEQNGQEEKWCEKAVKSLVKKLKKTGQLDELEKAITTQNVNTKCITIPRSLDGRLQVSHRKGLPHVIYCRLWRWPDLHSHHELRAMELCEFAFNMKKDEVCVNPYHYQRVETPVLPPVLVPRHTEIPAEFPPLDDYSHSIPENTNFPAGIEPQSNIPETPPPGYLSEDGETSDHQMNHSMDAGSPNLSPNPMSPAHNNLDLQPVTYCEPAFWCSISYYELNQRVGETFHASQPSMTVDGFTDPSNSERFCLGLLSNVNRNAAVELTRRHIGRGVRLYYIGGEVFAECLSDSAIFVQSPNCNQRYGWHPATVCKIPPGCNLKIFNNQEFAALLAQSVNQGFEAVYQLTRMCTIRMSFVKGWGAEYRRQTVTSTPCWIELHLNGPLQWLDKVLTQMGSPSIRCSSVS

Compared with `CC1(C)CC(=O)C(C2(O)C(=O)NC(=O)NC2=O)C(=O)C1` [5-(4,4-dimethyl-2-oxidanyl-6-oxidanylidene-cyclohexen-1-yl)-5-oxidanyl-1,3-diazinane-2,4,6-trione], `Cc1ccc(-[n+]2c(O)csc2[C-](C(Cl)=C(Cl)Cl)[N+](=O)[O-])cc1` [(2E)-3-(4-methylphenyl)-2-[2,3,3-tris(chloranyl)-1-nitro-prop-2-enylidene]-1,3-thiazolidin-4-one] is 12-fold higher in IC50: 2.3 µM for the first, 27.7 µM for the second. The first is the more potent here.

First: CCN(CC)P(=O)(NC(=O)C(Cl)(Cl)Cl)N(CC)CC [MLS000564159]
Second: O=C1C=CC(CN=Nc2nccs2)C=C1[N+](=O)[O-] (centres undefined) [(4Z)-2-nitro-4-[(2-thiazolylhydrazo)methylidene]-1-cyclohexa-2,5-dienone]
The IC50 of the first is 2.2-fold lower: 14.1 µM for the first, 30.9 µM for the second.
